In patent publication US20060148907A1, “Topical antinflammatory preparations of y-terpinene” (priority 2002, published 2006):
Entries after “also recorded” stand apart in the source; their conditions may differ. Where two headings read alike, the source gives them in different places.

Legend:
[1] = tested on: skin erythemal response induced by solar simulated UV on the dorsal skin of human subjects; assay: Human study: reduction of skin erythemal response induced by solar simulated UV; assay type: in vivo; settings: for Reduction in Erythema vs Base: 4 mg/sq cm immediately after irradiation and 4-5 hours later, erythema read 16-24 hours later; for statistical difference from the Base and UV alone (MED): p<0.05
[2] = tested on: carrageenan induced hind paw edema; settings: cited from earlier work
[3] = cited from earlier work
[4] = 0.25% in BP 1988 Cetomacrogol Cream
[5] = 0.5% in BP 1988 Cetomacrogol Cream
[6] = 1% (1.0%) in BP 1988 Cetomacrogol Cream

SMILES | Reduction in Erythema vs Base [1, 4] [%] | Reduction in Erythema vs Base [1, 5] [%] | Reduction in Erythema vs Base [1, 6] [%] | anti-inflammatory effectiveness in words (compared to Indomethacin) ([1]; 1% (1.0%) product) | anti-inflammatory effectiveness in words (compared to Indomethacin) ([1]; 0.25% product) | further results
CC(C)=CCC[C@](C)(O)[C@@H]1CC=C(C)CC1 [(−) alpha-Bisabolol, (−)-alpha-bisabolol, reference compound] | 10 | 44 |  |  |  | statistical difference from the Base and UV alone (MED) ([1]; 0.50% product): statistically different
COc1ccc2c(c1)c(CC(=O)O)c(C)n2C(=O)c1ccc(Cl)cc1 [Indomethacin, reference compound] |  |  | 66 | most effective anti-inflammatory |  | 
CC1=CCC(O)(C(C)C)CC1 (stereo not drawn) [Terpinen-4-ol, terpinen-4-ol, reference compound] | 7 | 45 |  | good performance status |  | anti-inflammatory activity ([2]; dosages from 0.03 mg/paw to 6.0 mg/paw): significant anti-inflammatory activity; acute oral LD50 [3]: 1300 mg/kg
CC1=CC=C(C(C)C)CC1 [α-terpinene] | 58 |  |  |  | good performance status | anti-inflammatory activity (inhibition of edema formation) ([2]; highest dose tested, 6 mg/paw): significant anti-inflammatory activity; anti-inflammatory activity (inhibition of edema formation) ([2]; lesser dosages than 6 mg/paw): relatively weak
CC1=CCC(C(C)C)=CC1 [γ-terpinene] | 52 | 29 | 32 | statistically similar | high effective anti-inflammatory | statistical difference from the Base and UV alone (MED) ([1]; 0.25% product): statistically different; more erythema than Indomethacin ([1]; 1.0% product vs 1% Indomethacin): 98%; reducing UV erythema (MED) ([1]; 1.0% product vs UV alone (MED)): 39%; statistical difference from the Base and UV alone (MED) ([1]; 1.0% product): not significantly different from the Base; also recorded: significantly different from the MED; anti-inflammatory activity ([2]; dose not given): ineffective; also recorded: did not exhibit any significant anti-inflammatory activity
